The term pIC50 denotes the IC50 on a negative log10 scale, so that one unit is a factor of ten.

Here are results for 26 compounds from patent publication US10889553B2, “Asymmetric triazole benzamide derivatives and the compositions and methods of treatment regarding the same” (NysnoBio Ireland DAC, priority 2017, dated 2021).

pIC50: −log10 of the molar value. A value given as a limit tells only on which side of the number the result lay.

The test system of series [1] is TOV-21G (ovarian). Nature of the series: Cancer cell proliferation assay (acid phosphatase). Conditions: Homo sapiens, TOV21G, 72 h, Table 6A; 72 hrs; read-out: TOV-21G IC50. The class given is cell-based. A digest of the protocol:
(§1)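 Seed 4×10^4 cells/ml, overnight 37° C./5% CO2; add compound (varying conc., triplicate); incubate 72 hrs; wash PBS; acid phosphatase substrate pH 5.5, 2 h; stop NaOH; read 405/620 nm; % inhibition vs DMSO.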

A short description of series [2]: Microsomal stability assay, rat liver microsomes. Conditions: pH 7.4; rat liver microsomes 1.0 mg/mL, 1 μM compound, NADPH; read-out: RLM t1/2. The class given is in vitro ADME. The protocol: (§2) Compounds were also tested for metabolic stability in both rat liver microsomes (RLM) and the compounds are tested for human liver microsomes (HLM) and their half-life is calculated (See Tables 5A and 5B). The assay was performed as follows. The total volume for each incubation was 250 μL. A 100 μM DMSO solution of compound (diluted from 10 mM stock solution) was spiked into 50 mM KH2PO4 (pH 7.4) buffer containing liver microsome at a concentration of 1.0 mg/mL. The reaction was initiated by the addition of 50 μL of 1 mM NADPH. The final concentration of each compound was 1 μM (1% DMSO). The positive controls, phenacetin for CYP1A2, diclofenac for CYP2C9, omeprazole for CYP2C19, dextromethorphan for CYP2D6 and midazolam for CYP3A4 were added to a separate tube with the final substrate concentrations of 1 μM (1% DMSO) for evaluating the enzyme activities in the liver microsomes. At 0, 15, 30 and 60 min, an aliquot of 15 μL reaction mixtures were removed and 200 μL of methanol (with internal standard of 25 ng/mL propranolol) was added to quench the reaction. The resulting mixture was centrifuged and supernatant was used for LC-MS/MS analysis.
(§3) The signals for each compound, or the metabolites for the probe substrates and the internal standard were integrated and the peak area ratios to internal standard were generated. Percent parent remaining at a specified timepoint was calculated based on the peak area ratios at time 0 (as 100%) for in vitro metabolic stability studies in liver microsome and hepatocyte. The observed rate constant (kobs) for the metabolism of substrates was calculated by plotting the natural log of percentage substrate remaining versus time of incubation with the slope being kobs. The half-life (T1/2) was calculated according to the following equation: T1/2=[…]
(Microsomes from liver hold many membrane-bound enzymes, among them those of drug oxidation.)

For series [3], the system named is A549 (lung). The series is described as follows: Cancer cell proliferation assay (acid phosphatase). It is filed as cell-based. Conditions: Homo sapiens, A549, 72 h, Table 6A; 72 hrs; read-out: A549 IC50. A digest of the protocol:
as §1

For series [4], the system named is HCT-116 (colon). The series is described as follows: Cancer cell proliferation assay (acid phosphatase). The class given is cell-based. The settings on record: Homo sapiens, HCT-116, 72 h, Table 6A; 72 hrs; read-out: HCT-116 IC50. A digest of the protocol: as §1
For series [5], the system named is LS-174T (colon). Nature of the series: Cancer cell proliferation assay (acid phosphatase). The class given is cell-based. Conditions: Homo sapiens, LS174T; Table 6A; 72 hrs. A digest of the protocol:
as §1

Series [6] has as its system Calu-6 (lung). The series is described as follows: Cancer cell proliferation assay (acid phosphatase). It is filed as cell-based. Conditions: Homo sapiens, Table 6A, 72 hrs, read-out: Calu6 IC50. A digest of the protocol:
as §1

Series [7] in a line: Microsomal stability assay, human liver microsomes. It is filed as in vitro ADME. Conditions: pH 7.4; human liver microsomes 1.0 mg/mL, 1 μM compound, NADPH; read-out: HLM t1/2. On the procedure: as §2, §3

On to `Cc1ccccc1C(=O)Nc1nc(NC(=O)c2ccno2)n(-c2ccccc2)n1` [Compound 7], for which, in series [1], the pIC50 was less than 6.00. For the same compound, the half-life at 1 μM in series [2] was found to be 3.98 h.

`C#Cc1ccc(C(=O)Nc2nc(NC(=O)c3cccc(N=[N+]=[N-])c3)n(-c3ccccc3)n2)cc1` [Compound 2]: the pIC50 was 5.66 in series [1], 5.66 in series [3] and 3.19 in series [4]. The half-life at 1 μM in series [2] worked out at 0.683 h.

Take `Cc1ccccc1C(=O)Nc1nc(NC(=O)c2ccncc2)nn1-c1ccccc1` [Compound 34]: the pIC50 in series [5] was 5.59; in series [1], 5.82; in series [3] it was 5.60. Besides, in series [2], the half-life at 1 μM is 5.5 h.

As to `COc1ccccc1C(=O)Nc1nc(NC(=O)c2ccccc2OC)n(-c2ccccc2)n1` [Compound 23], the pIC50 is less than 5.60 in series [5], 5.62 in series [1], less than 5.60 in series [6] and less than 5.60 in series [3]. The half-life at 1 μM in series [2] is 0.35 h.

With `Cc1ccc(C(=O)Nc2nc(NC(=O)c3ccc(C)cc3)n(-c3ccccc3)n2)cc1` [Compound 21], the pIC50 in series [5] was less than 5.60; in series [1], 5.60; in series [6] it was less than 5.60; in series [3], 5.60. For the same compound, the half-life at 1 μM in series [2] turned out to be 0.1 h.

With `Cc1ccccc1C(=O)Nc1nc(NC(=O)c2ccccc2C)n(-c2ccc(C(F)(F)F)cc2)n1` [Compound 25], the figures for the half-life at 1 μM in series [7] and in series [2] were 1.18 h and 6.8 h, respectively. Besides, the negative-log IC50 (pIC50) is more than 6.70 in series [5]; more than 7.00 in series [1]; 6.37 in series [6]; 7.40 in series [3]; 6.92 in series [4].

`COc1ccc(C(=O)Nc2nc(NC(=O)c3ccc(OC)cc3)n(-c3ccccc3)n2)cc1` [Compound 37]: the values for the pIC50 in series [5], in series [1] and in series [3] were 5.62, 5.72 and 5.64, respectively. In series [2], the half-life at 1 μM came to 0.35 h.

Consider `Cc1ccccc1C(=O)Nc1nc(NC(=O)c2ccccc2C)n(-c2ccc(C#N)cc2)n1` [Compound 35], for which the pIC50 in series [5] is 5.64; in series [1], 5.85; in series [3], 5.62. Also, the half-life at 1 μM in series [2] came to 3.3 h.

In the case of `Cc1ccccc1C(=O)Nc1nc(NC(=O)C2CCCN2)nn1-c1ccccc1` (stereo not shown) [Compound 20], the negative-log IC50 (pIC50) in series [5] and in series [1] was less than 6.00 in each case. In addition, the half-life at 1 μM in series [2] was 2.45 h.

Turning to `Cc1cccc(-n2nc(NC(=O)c3ccccc3C)nc2NC(=O)c2ccccc2C)c1` [Compound 38], the pIC50 in series [5] was 5.64; in series [1], 5.77; in series [6] it was 5.59; in series [3], 5.68. For the same compound, the half-life at 1 μM in series [2] is 0.433 h.

Take `Cc1ccccc1C(=O)Nc1nc(NC(=O)c2ccccc2C)n(-c2ccc(N3CCCCC3)cc2)n1` [Compound 44]: the pIC50 was 5.60 in series [5], 5.72 in series [1], less than 5.60 in series [6] and 5.70 in series [3]. The half-life at 1 μM in series [2] came out at 0.1 h.

In the case of `O=C(Nc1nc(NC(=O)c2ccccn2)n(-c2ccccc2)n1)c1ccccn1` [Compound 41], the negative-log IC50 (pIC50) was 5.60 in series [5], less than 5.60 in series [1] and 5.60 in series [3]. Besides, in series [2], the half-life at 1 μM came to 0.283 h.

Consider `O=C(Nc1nc(NC(=O)c2ccncc2)n(-c2ccccc2)n1)c1ccncc1` [Compound 33], for which the pIC50 in series [1] and in series [3] was less than 5.60 in each case. In addition, the half-life at 1 μM in series [2] worked out at 3.3 h.

In the case of `Cc1ccnc(-c2nc(NC(=O)c3ccccc3C)n(-c3ccccc3)n2)c1` [Compound 124], the values for the pIC50 in series [1], in series [6] and in series [3] were 6.23, 5.85 and 5.92, respectively. Also, the half-life at 1 μM in series [2] amounted to 0.717 h.

With `Cc1ccccc1C(=O)Nc1nc(NCc2ccccc2)nn1-c1ccc(C(F)(F)F)cc1` [Compound 102], the pIC50 in series [1] was less than 5.60; in series [3], less than 5.60; in series [4] it was 5.60. In series [2], the half-life at 1 μM was found to be 0.167 h.

Take `Cc1ccccc1C(=O)Nc1nc(NC(=O)c2ccccc2C)n(-c2ccc(F)cc2F)n1` [Compound 46]: the pIC50 in series [5] is 5.60; in series [1], 5.62; in series [3] it was 5.60. The half-life at 1 μM in series [2] turned out to be 1.62 h.

For the compound `O=C(Nc1nc(NC(=O)c2cccnc2)n(-c2ccccc2)n1)c1cccnc1` [Compound 40], the pIC50 in series [5] and in series [1] was less than 5.60 throughout. In series [2], the half-life at 1 μM was more than 8.33 h.

Take `Cc1ccccc1C(=O)Nc1nc(NC(=O)c2cccnc2)nn1-c1ccccc1` [Compound 6]: in series [1], the pIC50 is 5.92. Besides, in series [2], the half-life at 1 μM stood at 0.0833 h.

On to `Cc1ccccc1C(=O)Nc1nc(NC(=O)c2ccccc2C)n(-c2cccc(Cl)c2)n1` [Compound 36], for which the half-life at 1 μM in series [7] came to 2.45 h; in series [2], 1.05 h. The pIC50 is 5.89 in series [5], 6.52 in series [1], 6.77 in series [6] and 6.66 in series [3].

With `Cc1ccccc1C(=O)Nc1nc(NC(=O)c2ccccc2C)n(-c2ccccc2F)n1` [Compound 32], the pIC50 in series [5], in series [1] and in series [3] was less than 5.60 in each case. The half-life at 1 μM in series [2] stood at 3.4 h.

With `Cc1ccccc1C(=O)Nc1nc(NC(=O)c2ccccn2)nn1-c1ccccc1` [Compound 16], the pIC50 is 5.64 in series [1] and 5.59 in series [3]. For the same compound, the half-life at 1 μM in series [2] is 2.35 h.

For `Cc1ccc(-n2nc(NC(=O)c3ccccc3C)nc2NC(=O)c2ccccc2C)cc1` [Compound 31], the pIC50 in series [5] was less than 5.60; in series [1], 5.64; in series [3], 5.60. Also, the half-life at 1 μM in series [2] amounted to 0.233 h.

With `Cc1ccccc1C(=O)Nc1nc(NC(=O)c2ccccc2C)n(-c2ccc(F)c(F)c2)n1` [Compound 24], the half-life at 1 μM was 3.4 h in series [7] and 2.18 h in series [2]. Moreover, the pIC50 in series [5] was 6.03; in series [1], 6.01; in series [6], 6.54; in series [3] it was 6.55.

For `Cc1ccccc1C(=O)Nc1nc(NC(=O)c2ccccc2C)n(-c2cccc(F)c2)n1` [Compound 39], the pIC50 in series [5] was 5.68; in series [1], 5.82; in series [6], 5.60; in series [3], 5.92. The half-life at 1 μM in series [2] came out at 2.22 h.

Take `Cc1ccccc1C(=O)Nc1nc(NC(=O)c2cnccn2)n(-c2ccccc2)n1` [Compound 17]: in series [1], the pIC50 is less than 6.00. Moreover, the half-life at 1 μM in series [2] was 0.433 h.

Take `Cc1ccccc1C(=O)Nc1nc(NC(=O)c2ccccc2C)n(-c2ccccc2Cl)n1` [Compound 26]: the results for the pIC50 in series [5], in series [1] and in series [3] were less than 6.00, 5.68 and 5.60, respectively. In series [2], the half-life at 1 μM was 0.967 h.
